Data published in US11793782B2, “Therapeutic agents for neurodegenerative diseases” (priority 2017, dated 2023).

Experiments:
[1] = tested on: corticobasal syndrome patient; test: Case study, corticobasal syndrome; format: in vivo, human
Description: Gait analysis was performed before treatment commenced.

[2] = tested on: Tay-Sachs disease patients; test: Case studies, Tay-Sachs disease patients (SARA, SCAFI, MoCA); format: in vivo, human
Excerpt: For example, to evaluate overall neurological status, mDRS, a four-domain scale (ambulation, manipulation, language and swallowing), may be applied. Cerebellar function may be evaluated using SARA, an eight-item clinical rating scale (gait, stance, sitting, speech, fine motor function and taxis; range 0-40, where 0 is the best neurological status and 40 the worst), and SCAFI, comprising the 8-m-Walking-Time (8 MW; performed by having patients walking twice as quickly as possible from one line to another excluding turning), 9-Hole-Peg-Test (9HPT) and the number of “PATA” repetitions over 10 s. Subjective impairment and quality of life may be evaluated using the EQ-5D-5L questionnaire and VAS. To assess ocular motor function, 3-dimensional videooculography (EyeSeeCam) may be used to measure the peak velocity of saccades, gain of smooth pursuit, peak slow phase velocity of gaze-evoked nystagmus (gaze-holding function), peak slow phase velocity of optokinetic nystagmus, and gain of horizontal vestibulo-ocular reflex. To evaluate the cognitive state, WAIS-R or WISC-IV, and MoCA, assessing different cognitive domains, including attention and concentration, executive functions, memory, language, visuoconstructional skills, conceptual thinking, calculations, and orientation with a maximum of 30 points and a cut-off score of 26, may be used. The skilled person will know how to perform these and other such tests.
Before treatment was commenced, examination of the patient indicated a Scale for Assessment and Rating of Ataxia (SARA) score of 15.5/40. In addition, results from the patient's Spinocerebellar Ataxia Functional Index (SCAFI) analysis were: • Mean 8-meters Walking Test (8 MW): 21.6 s • MW 9-Hole Pegboard Test Dominant (9HPTD) (right): 48.3 s • MW 9-Hole Pegboard Test Non-Dominant (9HPTND): 44.9 s • MW PATA Word Test: 20 • Montreal Cognitive Assessment (MoCA): 18/30
The day following this examination, the patient was started on therapy with acetyl-leucine, at a dose of 3 g per day for the first week, followed by a dose of 5 g per day for the second week onwards.
The day of the examination, the patient was started on therapy with acetyl-leucine at a dose of 3 g per day for the first week, followed by a dose of 5 g per day for the second week onwards.
The patient was started on therapy with acetyl-leucine at a dose of 1.5 g per day for the first week, followed by a dose of 3 g per day for the second week onwards.

[3] = tested on: NPC Chinese Hamster Ovary (CHO) cells; test: Relative lysosomal volume via LysoTracker, NPC CHO cells; format: cell-based; conditions: 1 mM, 72 hours, p<0.01 versus untreated NPC1-null
Excerpt: Relative lysosomal volume was quantified via LysoTracker.

Npc1−/− and Npc1+/+ mice = test: Motor function analysis (Open Field Activity Monitor), NPC mouse study; format: in vivo; conditions: 0.1 g/kg from weaning, nine weeks of age
Description: Separate groups of Npc1^−/− and Npc1^+/+ mice were left untreated, as controls. Motor function analysis was performed on mice at eight and nine weeks of age using an Open Field Activity Monitor according to manufacturer's instructions (Linton Instruments, Amlogger Software). Each mouse was placed in a plastic cage with bedding and analysed for five minutes. Rears were counted manually. Motor function parameters measured were: • 1. Centre Rearing: mice rearing on hind legs unsupported; • 2. Rearing: mice rearing on hind legs with and without the support of cage walls; • 3. Activity: regular movement of the animal including walks; • 4. Front to Back (FR) count: movement of the animal from front to back of the cage; • 5. Active Time: duration (s/min) of activeness regardless of movement; • 6. Mobile Time: duration (s/min) of mobility; • 7. Rearing Time: duration of any rearing. Results Coat Condition

[4] = tested on: Sandhoff disease patient fibroblasts; test: Glycosphingolipid (GSL) levels by HPLC, Sandhoff fibroblasts; format: cell-based, human; conditions: 1 mM for 6 days
SCA 28 patient = test: Case study, spinocerebellar ataxia 28 (SCA 28); format: in vivo, human
Description: A gait analysis was performed before treatment commenced. After about one month of treatment, medication was stopped and the patient was evaluated. […] The patient reported that they no longer walked like a robot and could climb the stairs without using the banisters.

[5] = tested on: Niemann-Pick A (NPA) patient fibroblasts; test: Lysosomal volume via LysoTracker, NPA fibroblasts; format: cell-based, human; conditions: 1 mM, 6 days
MSA-P patients = test: Case studies, multiple system atrophy Parkinson type (MSA-P) patients; format: in vivo, human; conditions: MSA-P Patient 1; 6 weeks later

CC(=O)NC(CC(C)C)C(=O)O (racemic) [acetyl-DL-leucine]
Clinical observation ([1]; 5 g per day, after 20 days): improvement of dizziness symptoms and significant reduction in the frequency of falls
Coefficient of variation (temporal) ([1]; after 20 days of treatment, before 3.9): 3.4
Track width ([1]; after 20 days of treatment, before 12.1): 12.3 cm
Functional Gait Assessment ([1]; after 20 days of treatment, before 13/30): 18/30
Double stance ([1]; after 20 days of treatment, before 29.8): 26.6%
speed ([1]; after 20 days of treatment, before 63): 92 cm/s
Step cycle length ([1]; after 20 days of treatment, before 84): 104 cm
cadence ([1]; after 20 days of treatment, before 90): 106 steps/minute
Max. speed ([1]; after 20 days of treatment, before 131): 152 cm/s
Symptoms after suspension of treatment ([1]; two days after suspension, after 8 weeks of treatment): increase of dizziness symptoms
Overall symptoms ([2]; Tay-Sachs Patient 1): improvement in symptoms
SARA ([2]; Tay-Sachs Patient 1, 5 g per day, after 4 months, baseline 15.5/40): 17/40
MoCA ([2]; Tay-Sachs Patient 1, after 4 months, baseline 18/30): 22/30
PATA ([2]; Tay-Sachs Patient 1, after 4 months, baseline 20): 21
8MWT ([2]; Tay-Sachs Patient 1, after 4 months, baseline 21.6 sec): 25.49 s
9HPTND ([2]; Tay-Sachs Patient 1, after 4 months, baseline 44.9 sec): 47.09 s
9HPTD ([2]; Tay-Sachs Patient 1, after 4 months, baseline 48.3 sec): 48.67 s
Clinical observation ([2]; Tay-Sachs Patient 1, after four months): stable condition with slightly improved cognitive function but had deterioration of stance, gait and fine motor function
Clinical observation ([2]; Tay-Sachs Patient 1, after one month): improved fine motor skills and reduced hand tremor
MoCA ([2]; Tay-Sachs Patient 1, after one month, baseline 18/30): 21/30
PATA ([2]; Tay-Sachs Patient 1, after one month, baseline 20): 22
8MWT ([2]; Tay-Sachs Patient 1, after one month, baseline 21.6 sec): 7 s
9HPTND ([2]; Tay-Sachs Patient 1, after one month, baseline 44.9 sec): 40.1 s
9HPTD ([2]; Tay-Sachs Patient 1, after one month, baseline 48.3 sec): 45.9 s
SARA ([2]; Tay-Sachs Patient 2, 5 g per day, after one month, baseline 10.5/40): 5/40
Clinical observation ([2]; Tay-Sachs Patient 2, after one month): increased enunciation, improved postural stability, and enhanced cognitive function
8MWT ([2]; Tay-Sachs Patient 2, after one month, baseline 12.5 sec): 9.55 s
PATA ([2]; Tay-Sachs Patient 2, after one month, baseline 18): 17
MoCA ([2]; Tay-Sachs Patient 2, after one month, baseline 21/30): 25/30
9HPTD ([2]; Tay-Sachs Patient 2, after one month, baseline 21.5 sec): 34.97 s
9HPTND ([2]; Tay-Sachs Patient 2, after one month, baseline 35.5 sec): 39.34 s
SARA ([2]; Tay-Sachs Patient 3, 3 g per day, after one month, baseline 36/40): 33/40
Clinical observation ([2]; Tay-Sachs Patient 3, after one month): increased fine motor skills
mRDS ([2]; Tay-Sachs Patient 3, after one month, baseline 18/24): 16/24
EQ-5D-5L visual scale ([2]; Tay-Sachs Patient 3, after one month, baseline 50): 60
8MWT ([2]; Tay-Sachs Patient 3, after one month, with support of one arm, baseline 18.1 (only with strong support)): 11.75 (with support
Lysosomal volume (LysoTracker) [3]: significantly reduced lysosomal volume
Motor function vs untreated littermates (Npc1−/− and Npc1+/+ mice): significantly improved motor function
GSL levels [4]: trend towards decreased GSL levels
Clinical observation (SCA 28 patient; 5 g per day, after about one month): improvement of the symptomatology
Coefficient of variation (temporal) (SCA 28 patient; after treatment for one month, before 4.1): 2.1
Track width (SCA 28 patient; after treatment for one month, before 14.5): 11.7 cm
Functional Gait Assessment (SCA 28 patient; after treatment for one month, before 24/30): 23/30
Double stance (SCA 28 patient; after treatment for one month, before 24.9): 23.8%
cadence (SCA 28 patient; after treatment for one month, before 100): 105 steps/minute
Self-chosen speed (SCA 28 patient; after treatment for one month, before 101): 118 cm/s
Step cycle length (SCA 28 patient; after treatment for one month, before 122): 135 cm
Maximum speed (SCA 28 patient; after treatment for one month, before 188): 201 cm/s
LysoTracker fluorescence relative to untreated disease fibroblasts [5]: statistically significant reduction in LysoTracker fluorescence
Symptoms after stopping medication (MSA-P patients): did not report deterioration of symptoms
